Experimental data taken from patent US8343934B2, “Diverse lead compound autotaxin inhibitors” (University of Memphis, priority 2009, dated 2013).
pIC50: −log10 of the molar value. Values joined by “and” are separate entries in the source; they are usually repeats but may differ in a detail not shown here. Equal values may be shown once.

Target: T1, ATX (Homo sapiens, UniProt Q13822)
T1 construct: conditioned serum-free medium (CCM) from MDA-MB-435 cells as the source of ATX; endogenous in cells; host or cells: MDA-MB-435 cells (about 10x concentrated conditioned serum-free medium)
Experiment: ATX inhibition assay (FS-3 substrate)
Format: biochemical
Settings: for % Response: preliminary screen, FS-3 hydrolysis at one hour, normalized to vehicle control, mean±S.D., same values given at 10 μM in Table 5; for pIC50: Calculated IC50 data for the 30 active compounds, FS-3 substrate
Procedure: ATX inhibition was assayed using the substrate FS-3 (Echelon Biosciences, Inc., Salt Lake City, Utah, USA). The FS-3 assay used ˜10 times concentrated conditioned serum-free medium (CCM) from MDA-MB-435 cells as the source of ATX, while CCM comprised one-third of the total volume. The final volume for FS-3 was comprised of the substrate at varying concentrations and 30 μM charcoal-stripped fatty acid free BSA (Sigma Aldrich) in assay buffer (1 mM each CaCl2 and MgCl2, 5 mM KCl, 140 mM NaCl, 50 mM Tris pH 8.0).
All assays were performed in 96-well plates with data read at 1 minute intervals by a Synergy2 system (BioTek, Winooski, Vt.). The fluorescence produced upon the hydrolysis of FS-3 was monitored using an excitation wavelength of 485 nm and an emission wavelength of 528 nm at 37° C. (Ferguson et al., 2006). […] All readings were normalized to vehicle control after subtraction of fluorescence in the absence of CCM. Data are shown as the mean±S.D. of at least three wells.

Row | % Response | pIC50 | Compound
1 | 94 ± 6.5% |  | Cc1ccc(C(=O)Nc2ccc(S(=O)(=O)O)c3cc(S(=O)(=O)O)cc(S(=O)(=O)O)c23)cc1NC(=O)c1cccc(NC(=O)Nc2cccc(C(=O)Nc3cc(C(=O)Nc4ccc(S(=O)(=O)O)c5cc(S(=O)(=O)O)cc(S(=O)(=O)O)c45)ccc3C)c2)c1.Cc1ccc(C)c2c1c(NCCCCCCNc1cc(C)[n+](C)c3c(C)ccc(C)c13)cc(C)[n+]2C [compound 32275]
2 | 51 ± 6.5% |  | CC(=O)Nc1ccc(C=Cc2ccc(NC(=O)Nc3ccc(C=Cc4ccc(NC(C)=O)cc4S(=O)(=O)O)c(S(=O)(=O)O)c3)cc2S(=O)(=O)O)c(S(=O)(=O)O)c1 [compound 34928]
3 | 73 ± 9.0% and 83 ± 5.8% |  | Cc1ccc(C(=O)Nc2ccc(S(=O)(=O)O)c3cc(S(=O)(=O)O)cc(S(=O)(=O)O)c23)cc1NC(=O)c1cccc(NC(=O)Nc2cccc(C(=O)Nc3cc(C(=O)Nc4ccc(S(=O)(=O)O)c5cc(S(=O)(=O)O)cc(S(=O)(=O)O)c45)ccc3C)c2)c1 [compound 34936]
4 | 87 ± 3.1% |  | CC1=NN(c2ccc(/C=C/c3ccc(NC(=O)Nc4ccc(/C=C/c5ccc(N6N=C(C)C(N=Nc7ccccc7C(=O)O)C6=O)cc5S(=O)(=O)O)c(S(=O)(=O)O)c4)cc3S(=O)(=O)O)c(S(=O)(=O)O)c2)C(=O)C1N=Nc1ccccc1C(=O)O.[Na+] (centres unmarked) [compound 34937]
5 | 98 ± 3.7% |  | O=S(=O)(c1ccc(NC(C(O)C(O)C(O)C(O)CO)S(=O)(=O)O)cc1)c1ccc(NC(C(O)C(O)C(O)C(O)CO)S(=O)(=O)O)cc1 (centres unmarked) [compound 36701]
6 | 92 ± 9.1% |  | O=S(=O)(O)c1cc(O)c2ccc(Nc3ccc4c(O)cc(S(=O)(=O)O)cc4c3)cc2c1 [compound 37203]
7 | 106 ± 60.5% |  | O=C(Nc1ccc2cc(S(=O)(=O)O)cc(O)c2c1)Nc1ccc2cc(S(=O)(=O)O)cc(O)c2c1 [compound 37204]
8 | 79 ± 3.7% |  | O=C(Nc1ccc(C(=O)Nc2ccc3c(O)cc(S(=O)(=O)O)cc3c2)cc1)c1ccccc1.[Na+] [compound 37215]
9 | 93 ± 4.6% |  | Nc1ccc(S(=O)(=O)c2ccc(NCNC(CSSCC(NCNc3ccc(S(=O)(=O)c4ccc(N)cc4)cc3)C(=O)O)C(=O)O)cc2)cc1 (centres unmarked) [compound 39858]
10 | 32 ± 9.1% | 4.86 | CN(C)C1C(=O)C(C(=O)NCNc2cccc(C(=O)O)c2C(=O)O)=C(O)C2(O)C(=O)C3=C(O)c4c(O)cccc4[C@](C)(O)[C@@H]3C[C@H]12 (some centres unmarked) [compound 43891]
11 | 61 ± 4.3% |  | CCOc1cc(-c2ccc(N=Nc3c(S(=O)(=O)O)cc4ccc(N)cc4c3O)cc2)ccc1N=Nc1c(S(=O)(=O)O)cc2ccc(N)cc2c1O.[Na+] [compound 44654]
12 | 89 ± 3.2% |  | O=C(Nc1ccc2c(O)cc(S(=O)(=O)O)cc2c1)Nc1ccc2c(O)cc(S(=O)(=O)O)cc2c1 [compound 45174]
13 | 64 ± 3.0% |  | O=C(Nc1ccc2c(O)cc(S(=O)(=O)[O-])cc2c1)Nc1ccc2c(O)c(N=Nc3ccc4cc(S(=O)(=O)[O-])ccc4c3)c(S(=O)(=O)[O-])cc2c1.[Na+].[Na+].[Na+] [compound 45616]
14 | 28 ± 3.7% | 5.05 | O=C(Nc1ccc2cc(S(=O)(=O)O)ccc2c1)c1ccc(N=Nc2c(S(=O)(=O)O)cc3cc(S(=O)(=O)O)cc(NC(=O)c4ccccc4)c3c2O)cc1.[Na+] [compound 45620]
15 | 16 ± 3.1% | 4.94 | COc1ccccc1N=Nc1c(S(=O)(=O)O)cc2cc(NC(=O)Nc3ccc4c(O)c(N=Nc5c(N)ccc6cc(S(=O)(=O)O)ccc56)c(S(=O)(=O)O)cc4c3)ccc2c1O [compound 45622]
16 | 92 ± 3.9% |  | COc1ccc(/C=N/N=C(N)/C(N)=N/N=C/c2ccc(OC)c(S(=O)(=O)O)c2)cc1S(=O)(=O)O.[Na+] [compound 46954]
17 | 90 ± 3.2% |  | NC(=N\N=C/c1ccc(O)c(S(=O)(=O)O)c1)/C(N)=N\N=C/c1ccc(O)c(S(=O)(=O)O)c1.[Na+] [compound 47470]
18 | 95 ± 3.0% |  | NC(=N\N=C/c1ccccc1S(=O)(=O)O)/C(N)=N\N=C/c1ccccc1S(=O)(=O)O.[Na+] [compound 47471]
19 | 116 ± 4.2% |  | Nc1c(N=Nc2ccc(S(=O)(=O)O)cc2)cc(S(=O)(=O)O)c2ccc(N=Nc3ccc([N+](=O)[O-])cc3)c(O)c12.[Na+] [compound 47725]
20 | 73 ± 3.0% |  | Cc1cc(C)c(N=Nc2cc(C)c(N=Nc3c(S(=O)(=O)[O-])cc4cc(Nc5ccccc5)ccc4c3O)cc2C)c(S(=O)(=O)[O-])c1.[Na+].[Na+] [compound 47747]
21 | 103 ± 58.1% |  | O=C(Nc1ccc2c(O)c(N=Nc3ccccc3)c(S(=O)(=O)[O-])cc2c1)Nc1ccc2c(O)c(N=Nc3ccccc3)c(S(=O)(=O)[O-])cc2c1.[Na+].[Na+] [compound 47749]

Row | % Response | pIC50 | Compound
22 | 68 ± 5.8% |  | Nc1cccc(N=Nc2c(S(=O)(=O)[O-])cc3cc(NC(=O)Nc4ccc5c(O)c(N=Nc6cccc(N)c6)c(S(=O)(=O)[O-])cc5c4)ccc3c2O)c1.[Na+].[Na+] [compound 47750]
23 | 52 ± 5.4% |  | Nc1c(N=Nc2ccc([N+](=O)[O-])cc2)c(S(=O)(=O)O)cc2cc(S(=O)(=O)O)c(N=Nc3ccc(-c4ccc(N=Nc5ccc(O)cc5)cc4)cc3)c(O)c12.[Na+] [compound 47752]
24 | 47 ± 3.7% | 4.42 | COc1cc(N=Nc2cc(S(=O)(=O)[O-])cc3cc(S(=O)(=O)[O-])cc(O)c23)c(C)cc1N=Nc1c(S(=O)(=O)[O-])cc2cc(Nc3ccccc3)ccc2c1O.[Na+].[Na+].[Na+] [compound 47755]
25 | 83 ± 5.5% |  | CC(=O)Nc1ccc(N=Nc2c(S(=O)(=O)O)cc3cc(NC(=O)Nc4ccc5c(O)c(N=Nc6ccccc6)c(S(=O)(=O)O)cc5c4)ccc3c2O)cc1.[Na+] [compound 47762]
26 | 41 ± 4.3% | 4.74 | COc1ccccc1N=Nc1c(S(=O)(=O)[O-])cc2cc(NC(=O)Nc3ccc4c(O)c(N=Nc5ccc(S(=O)(=O)[O-])cc5C)c(S(=O)(=O)[O-])cc4c3)ccc2c1O.[Na+].[Na+].[Na+] [compound 47764]
27 | 61 ± 3.7% |  | Nc1ccc(C(=O)Nc2cccc(C(=O)Nc3ccc4c(O)c(N=Nc5ccc(N=Nc6ccc(S(=O)(=O)[O-])cc6)cc5)c(S(=O)(=O)[O-])cc4c3)c2)cc1.[Na+].[Na+] [compound 47767]
28 | 98 ± 5.5% |  | COc1ccc(/C=N\NC(=O)N/N=C/c2ccc(OC)c(S(=O)(=O)O)c2)cc1S(=O)(=O)O.[Na+] [compound 48775]
29 | 94 ± 3.5% |  | O=C(N/N=C\c1ccc(O)c(S(=O)(=O)O)c1)N/N=C/c1ccc(O)c(S(=O)(=O)O)c1.[Na+] [compound 48776]
30 | 67 ± 4.0% |  | Nc1cccc(N=Nc2c(S(=O)(=O)[O-])cc3cc(Nc4ccc5c(O)c(N=Nc6cccc(N)c6)c(S(=O)(=O)[O-])cc5c4)ccc3c2O)c1.[Na+].[Na+] [compound 51533]
31 | 95 ± 3.9% |  | O=C(N/N=C/c1ccc(O)c(S(=O)(=O)O)c1)C(=O)N/N=C/c1ccc(O)c(S(=O)(=O)O)c1.[Na+] [compound 55736]
32 | 100 ± 4.2% |  | COc1ccc(/C=N/NC(=O)C(=O)N/N=C/c2ccc(OC)c(S(=O)(=O)O)c2)cc1S(=O)(=O)O [compound 56207]
33 | 89 ± 3.9% |  | Nc1cccc(N=Nc2c(S(=O)(=O)[O-])cc3cc(Nc4ccc5c(O)c(N=Nc6cccc(N)c6)c(S(=O)(=O)[O-])cc5c4)ccc3c2O)c1.[Na+].[Na+] [compound 58055]
34 | 29 ± 3.6% | 4.93 | Cc1ccccc1N=Nc1c(S(=O)(=O)[O-])cc2cc(NC(=O)Nc3ccc4c(O)c(N=Nc5ccc6cc(S(=O)(=O)[O-])ccc6c5)c(S(=O)(=O)[O-])cc4c3)ccc2c1O.[Na+].[Na+].[Na+] [compound 58057]
35 | 30 ± 4.9% | 4.86 | COc1cc(N=Nc2c(S(=O)(=O)O)cc3cc(NC(=O)Nc4ccc5c(O)c(N=Nc6ccc7cc(S(=O)(=O)O)ccc7c6)c(S(=O)(=O)O)cc5c4)ccc3c2O)c(C)cc1N [compound 58058]
36 | 71 ± 4.4% |  | Cc1cc(N=Nc2ccc(S(=O)(=O)[O-])cc2)c(N)c(N=Nc2ccc(S(=O)(=O)[O-])cc2)c1N.[Na+].[Na+] [compound 65540]
37 | 76 ± 5.1% |  | Nc1c(N=Nc2ccc([N+](=O)[O-])cc2)c(S(=O)(=O)O)cc2cc(S(=O)(=O)O)c(N=Nc3ccc([N+](=O)[O-])cc3)c(O)c12.[Na+] [compound 65544]
38 | 56 ± 4.9% |  | Nc1c(N=Nc2ccc([N+](=O)[O-])cc2)c(S(=O)(=O)O)cc2cc(S(=O)(=O)O)c(N=Nc3ccc(-c4ccc(O)cc4)cc3)c(O)c12.[Na+] [compound 65560]
39 | 74 ± 5.5% |  | Cc1cc(N)ccc1N=Nc1ccc(Sc2ccc(N=Nc3c(S(=O)(=O)O)cc4cc(S(=O)(=O)O)c(N=Nc5ccc([N+](=O)[O-])cc5)c(N)c4c3O)cc2)cc1.[Na+] [compound 65571]
40 | 39 ± 3.8% | 4.72 | O=C(Nc1ccc2c(O)c(N=Nc3ccccc3)c(S(=O)(=O)O)cc2c1)Nc1ccc2c(O)c(N=Nc3ccc4cc(S(=O)(=O)O)ccc4c3)c(S(=O)(=O)O)cc2c1.[H-].[Na+] [compound 65573]
41 | 20 ± 3.7% | 4.92 | Cc1cccc(N=Nc2c(S(=O)(=O)O)cc3cc(NC(=O)Nc4ccc5c(O)c(N=Nc6ccc7cc(S(=O)(=O)O)ccc7c6)c(S(=O)(=O)O)cc5c4)ccc3c2O)c1.[Na+] [compound 65574]
